Test results: patent US20180369195A1, “COMBINATION THERAPY FOR TREATMENT OF MELANOMA” (The Regents of the University of California, priority 2015, published 2018)

Legend:
[1] = test system: normal epidermal melanocytes; assay: CCK-8 proliferation assay, normal epidermal melanocytes; type: cell-based; conditions: 1-benzyl I3C treatment
[2] = test system: canonical Wnt signaling; assay: TOP Flash Wnt reporter assay in G361 cells; type: cell-based, human
Experimental: Murine fibroblast L cells stably transfected with a construct expressing high levels of human Wnt3A were used. The cells were grown in DMEM containing 4.5 g/L Glucose, 114 mg/L Sodium Pyruvate, and 2 mM L-glutamine, supplemented with 10% fetal bovine serum (Gemini Bio Products), 2 mM L-glutamine, and 2.5 ml of 10,000 U/ml penicillin/streptomycin mixture (Gibco, Life Technologies). Conditioned media was harvested in two batches, once during routine media change after 2 days of seeding the cells and once more when the plates were confluent. The cells were trypsinized as described earlier using 0.025% trypsin (Lonza) and pelleting the cells by a spin at 4000 rpm for 5 minutes and aspirating and filtering the supernatant through a 0.2 micron filter to obtain the conditioned media. The two batches of conditioned media were mixed 1:1 and stored in aliquots at −80° C. for future use.
The TOPflash/FOPflash (Millipore) reporter assay was performed on G361 cells to assess the effect of 1-benzyl I3C on β-catenin driven Wnt transcriptional activity. TOPflash is a TCF/LEF responsive luciferase construct encoding the firefly luciferase reporter under the control of a minimal (m) CMV promoter and tandem repeats of a TCF/LEF transcriptional response element (TRE). FOPflash is a similar construct with the LEF-1 binding site mutated which serves as the negative control. G361 cells were cultured to approximately 80% confluency in a 6 well clear bottom plate (Nunc). The TOPflash/FOPflash construct was transfected using Superfect Transfection Reagent (Qiagen.) according to the manufactures instructions. […] 20 μl of supernatant from each sample was combined with 100 μl luciferase substrate (Promega) and emitted fluorescence was measured using luminometer, Lumat LB 9507 (EG&G Berthold) and the relative light units (RLU) were recorded. The RLU/μg for each sample was calculated by dividing the data obtained with their specific protein concentration determined by a Bradford assay using 1× BioRad Protein Assay reagent and measuring O.D at 595 nm. […]

[3] = test system: LEF1; assay: Chromatin immunoprecipitation, LEF1 at MITF-M promoter; type: cell-based, human; conditions: G361 cells, 20 μM 1-benzyl I3C, 48 hours
[4] = test system: SK-MEL-2 cells; assay: Flow cytometry analysis of DNA content, SK-MEL-2; type: cell-based, human; conditions: all tested concentrations of I3C
Experimental: Melanoma cells were treated with the indicated concentrations of 1-benzyl […] in triplicates every 24 hours and harvested at the end of 24, 48 or 72 hours for cell cycle analysis. The DNA content of propidium iodide stained nuclei from harvested cells were determined by flow cytometry. Briefly, cells were hypotonically lysed in […] of DNA staining solution (0.5 mg/mL propidium iodide, 0.1% sodium citrate, and 0.05% Triton-X 100). Emitted fluorescence from the nuclear of wavelengths more than 585 nm was measured with a Coulter Elite instrument with laser output adjusted to deliver 15 mW at 488 nm. Ten thousand nuclei were analyzed from each sample at a rate of 300-500 nuclei/second. The percentage of cells within the G1, S, and G2/M phases of the cell cycle were determined by analysis with the Multicycle computer program provided by Phoenix Flow Systems in the Cancer Research Laboratory Microchemical Facility of the University of California, Berkeley.

[5] = target: T1, BRAF-V600E (Homo sapiens, UniProt P15056, V600E); assay: BRAF kinase assay on BRAF immunoprecipitated from pretreated G-361 cells; type: biochemical; conditions: G-361 cells treated 48 hours; 200 μM or 400 μM I3C, 10 μM Vemurafenib
T1 construct: BRAF-V600E was immunoprecipitated from untreated G-361 cells and incubated in vitro; endogenous in cells; host or cells: G-361 human melanoma cells (ATCC)
Experimental: BRAF was pulled down from the cell lysates using anti-BRAF antibodies bound to protein G-coupled Sepharose beads, while IgG was used as a negative control. Post-immunoprecipitation supernatants were probed with anti BRAF antibody by western blots to determine pull-down efficiency. […] The reactions were terminated by adding 4× sodium dodecyl sulfate (SDS) sample buffer and boiling the mixture at 100° C. for 5 min. The samples were then electrophoresed, immunoblotted and probed for relative protein levels of phosphorylated MEK and total MEK to assess the kinase activity of the immunoprecipitated BRAF.

[6] = test system: phosphorylated Erk/MAPK; assay: Western blot of phosphorylated Erk/MAPK; type: cell-based, human; conditions: 200 μM I3C
Experimental: Western Blot analyses of samples electrophoretically fractionated on 12% acrylamide gels were carried out as previously described (Wagle et al., J. Clin. Oncol. 2011. 29(22):3085-3096; Nguyen et al., Chem. Biol. Interact. 2010. 186(3):255-266). […] The western blots employed the following primary antibodies: mouse anti-MITF-M (Thermo-scientific), mouse anti-HSP 90 (BD Biosciences), mouse anti-CDK2, rabbit anti-CDK4, rabbit anti-CDK-6, mouse anti-rabbit BRAF, goat anti-LEF-1, rabbit anti-AXIN, mouse anti-BCL2, (Santa Cruz), rabbit anti-P21, mouse anti-Cyclin D1, rabbit anti-MEK-p, rabbit anti-MEK1/2, rabbit anti-GSK3β rabbit anti-LRP6, rabbit anti-LRP6-phospho (Cell signaling), mouse anti-β-catenin (Invitrogen).

T1 sequence (P15056 whole entry V600E): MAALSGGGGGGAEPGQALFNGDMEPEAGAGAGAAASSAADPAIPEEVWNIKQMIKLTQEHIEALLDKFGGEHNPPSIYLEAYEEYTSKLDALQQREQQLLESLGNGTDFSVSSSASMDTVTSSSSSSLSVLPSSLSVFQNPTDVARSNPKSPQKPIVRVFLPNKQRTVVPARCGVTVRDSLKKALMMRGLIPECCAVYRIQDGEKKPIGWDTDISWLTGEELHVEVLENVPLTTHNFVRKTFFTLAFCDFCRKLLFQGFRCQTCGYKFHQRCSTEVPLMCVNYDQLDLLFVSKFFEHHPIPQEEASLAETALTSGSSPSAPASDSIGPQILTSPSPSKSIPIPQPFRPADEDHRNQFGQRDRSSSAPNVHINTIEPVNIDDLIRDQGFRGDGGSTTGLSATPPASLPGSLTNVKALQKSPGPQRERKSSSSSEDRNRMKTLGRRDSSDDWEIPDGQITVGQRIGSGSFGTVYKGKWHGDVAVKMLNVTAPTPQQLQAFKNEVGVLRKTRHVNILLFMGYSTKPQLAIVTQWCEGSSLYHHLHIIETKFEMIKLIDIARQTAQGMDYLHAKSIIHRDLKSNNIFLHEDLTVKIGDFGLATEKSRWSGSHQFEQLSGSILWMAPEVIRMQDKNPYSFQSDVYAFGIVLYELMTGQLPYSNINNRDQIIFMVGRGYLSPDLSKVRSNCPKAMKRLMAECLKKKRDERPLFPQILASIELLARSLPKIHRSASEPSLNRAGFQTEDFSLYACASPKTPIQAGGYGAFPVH

For `OCc1cn(Cc2ccccc2)c2ccccc12` [1-benzyl I3C, 1-benzyl indole-3-carbinol], the antiproliferative response [1] was “No such antiproliferative response”, the “Wnt signaling (TOP luciferase activity)” value ([2]; G361 cells in Wnt conditioned media, 1-benzyl I3C 24 hours) was “Wnt signaling was significantly attenuated” and the “1-benzyl I3C induced inhibition of luciferase activity, constitutively active LRP6 transfected cells” value ([2]; G361 cells, 1-benzyl I3C 24 hours) was “significantly rescued”. The “Wnt signaling (luciferase activity), wild-type vector transfected cells” value ([2]; G361 cells, 1-benzyl I3C 24 hours vs vehicle) was “significantly inhibited the Wnt signaling” and the “LEF1 interactions with the MITF-M promoter” value [3] was “significantly disrupted nuclear LEF1 interactions with this promoter”.
`OCc1c[nH]c2ccccc12` [I3C, indole-3-carbinol] was tested, and the “G1 cell cycle arrest” value [4] was “remained in a rapidly proliferating state”, the “BRAF-V600E enzymatic activity (phosphorylated MEK) after cellular treatment” value [5] was “significantly inhibited BRAF-V600E enzymatic activity” and the “phosphorylated Erk/MAPK levels” value ([6]; G-361 and DM738 cells, 72 hour time course) was “strongly down regulated”. The “phosphorylated Erk/MAPK levels” value ([6]; G-361 cells, 48 hours, 10 μM Vemurafenib or 10 μM U0126) was “down regulated” and the “phosphorylated Erk/MAPK levels” value ([6]; SK-MEL-2 cells, 72 hour time course) was “no effect”.
